Test results as given in US20100204110A1, “USE OF A PEPTIDE AS A THERAPEUTIC AGENT” (priority 2007, published 2010).
Ends that are not written are not given here.

Assays:
HIV-1IIIB = assay: HIV-1 antiviral assay in CEM-SS cells (MTS); format: cell-based; settings: positive controls; CEM-SS cells plus HIV-1IIIB
[1] = test system: hepatitis B virus (HBV) ayw strain; assay: HBV assay in HepG2-2.2.15 cells (TaqMan PCR of HBV DNA); format: cell-based; settings: 10 micrograms per ml, six days
Description: HepG2-2.2.15 is a stable cell line containing the hepatitis B virus (HBV) ayw strain genome (ATCC Cat. No. CRL-11997). Antiviral compounds blocking any late step of viral replication such as transcription, translation, pregenome encapsidation, reverse transcription, particle assembly and release can be identified and characterized using this cell line. In this assay, an active compound will reduce the production of secreted HBV from cells, measured by utilizing real time quantitative PCR (TaqMan) assay to directly and accurately measure HBV DNA copies.
HepG2-2.2.15 cells were plated in 96-well microtiter plates. After 16-24 hours the confluent monolayer of HepG2-2.2.15 cells was washed and the medium was replaced with complete medium containing test peptides—10 micrograms per ml—in duplicate. […] Six days following the initial administration of the peptides, the cell culture supernatants was collected, treated with pronase and DNAse and then used in a real-time quantitative TaqMan PCR assay. The PCR-amplified HBV DNA was detected in real-time by monitoring increases in fluorescence signals that result from the exonucleolytic degradation of a quenched fluorescence probe molecule that hybridizes to the mplified HBV DNA. […] Antiviral activity was calculated from the reduction in HBV DNA levels (% virus control). […]

[2] = test system: Primary Human endothelial cells (HUVEC); assay: Endothelial cell migration assay; settings: 10 micrograms per ml, 22 hours, combination peptide 1:peptide 2 0.95 mole:1.05 mole
Description: Primary Human endothelial cells (HUVEC) were seeded in insert chambers with 3 micrometer pore size of multi-transwell plate for 6 hours at 37° C. in Endothelial Cell Basal Medium (EBM) supplemented with 0.1% bovine serum albumin. Thereafter, designated concentration of testing peptides—10 micrograms per ml—was added in duplicate wells. The endothelia were allowed to migrate for 22 hours at 37° C., then, migrated cells were fixed and stained with Hoechst 33342 dye. Images of 3 fields per insert were taken and the number of migrated cells per field were quantified using the ImageProPlus software. Data were analyzed for the average number of the migrated cells and standard deviation of six data points for each treatment condition. […] Statistic p values were computed using the Student's t-test.

HUVEC = assay: Endothelial tube formation assay; settings: 10 micrograms per ml, 20 hours, combination peptide 1:peptide 2 1.10 mole:0.90 mole
Description: The endothelial tube formation assay is based on the ability of endothelial cells to form three-dimensional capillary-like tubular structures when cultured on a gel of basement membrane extract. […] Pre-labeled HUVEC with Calcein AM were seeded in a 96-well culture plate coated with extracellular metrix (Chemicon international Cat. ECM625) and treated with test peptides—10 micrograms per ml—in full growth medium. Positive control was vehicle only. The endothelial cells were allowed to form tubes foe 20 hours and were then examined under an inverted fluorescent microscope. Duplicate wells for each treatment were photographed and quantitatevily analyzed for an average tubule length using image analysis software ImageProPlus. Raw data were expressed as average tubule lenghs in pixels±standard deviation. Statistic p values were computed using the Student's t-test.

HCMV strain AD169 = assay: HCMV plaque formation assay in MRC-5 cells; settings: 10 micrograms per ml, 7-10 days
RAW 264.7 cells = assay: Phagocytosis assay (Fluorescein-labeled Escherichia coli, flow cytometry); settings: 10 micrograms per ml, combination peptide 1 : peptide 2 1.10 mole : 0.90 mole
Description: RAW 264.7 (Mouse leukaemic monocyte macrophage cell line) cells were obtained from ATCC and grown in RPMI 1640 medium containing 10% FBS. Cells were incubated in 12×75 mm tubes at 37° C. with test peptides—10 micrograms per ml—for 30 min prior to adding Fluorescein-labeled Escherichia coli bacteria as the agent to be ingested. After the cells were incubated for additional 60 min at 37° C. and allowed to ingest the Fluorescein-labeled Escherichia coli bacteria, cells were fixed with 1% paraformaldehyde. The samples were then analyzed by flow cytometry to determine the amount of phagocytosis as a function of brightness (the greater the phagocytic activity, the more fluorescence in the macrophage population). Data are reported as % positive and the mean fluorescence intensity (MFI) of positively stained cells.

spleen cells = assay: Th1/Th2 cytokine profiling assay (Ovalbumin-restimulated spleen cells, CBA Kit); settings: 10 micrograms per ml; Ovalbumin restimulation; 72 hours
Description: The Balb/c mice (originated in 1923, it is a popular strain and is used in many different research disciplines. Also classified as an inbred from the production of 20 or more successive brother-sister matings, the Balb/c mouse is albino and small in size) were immunized on Days 1, 15, and 29 with Ovalbumin (Ovalbumin is the main protein found in egg white, commonly used to stimulate an immunological reaction in test animals) in PBS (5 micrograms/injection). On day 50, spleens of the mice were harvested (3 weeks after last boost with Ovalbumin). Cells were cultured (2×10^5/well in triplicate) and incubated with culture medium or test peptides—10 micrograms per ml—for 30 min. Thereafter, additional Ovalbumin was added to the cells at 10 micrograms/ml for in vitro restimulation of the cells. 72 hours later, cell supernatants were harvested and assayed using the Becton Dickinson Mouse Th1/Th2 Cytokine CBA Kit. This kit can be used to measure Interleukin-2 (IL-2), Interleukin-4 (IL-4), Interleukin-5 (IL-5), Interferon-γ (IFN-γ), and Tumor Necrosis Factor-α (TNF-α) protein levels in a single sample. The kit performance has been optimized for analysis of physiologically relevant concentrations (pg/ml levels) of specific cytokine proteins in tissue culture supernatants and serum samples.

Molecule	antiviral activity of positive control compounds (HIV-1) (HIV-1IIIB)	inhibition of HBV replication as compared to the virus control infection [1] [%]	inhibition of the migration of human endothelial cells [2] [%]	inhibition of the tube formation of human endothelial cells (HUVEC)	inhibition of HCMV plaque formation as compared to the virus control (HCMV strain AD169)	increase on the phagocytic activity of murine macrophages (RAW 264.7 cells) [%]	IFNγ spleen cells; TH1 response (% of control) (spleen cells)	IL-2 spleen cells (% of control) (spleen cells)	IL-4 spleen cells; TH2 response (% of control) (spleen cells)	IL-5 spleen cells; TH2 response (% of control) (spleen cells)	TNF-a spleen cells; TH1 response (% of control) (spleen cells)
Cc1cn([C@H]2C[C@H](N=[N+]=[N-])[C@@H](CO)O2)c(=O)[nH]c1=O [AZT]	expected levels of antiviral activity	–	–	–	–	–	–	–	–	–	–
CC(C)(C)NC(=O)[C@@H]1CN(Cc2cccnc2)CCN1C[C@@H](O)C[C@@H](Cc1ccccc1)C(=O)N[C@H]1c2ccccc2C[C@H]1O [indinavir]	expected levels of antiviral activity	–	–	–	–	–	–	–	–	–	–
Val-Tyr-Pro-Asn-Gly-Ala-Glu-Asp-Glu-Ser-Ala-Glu-Ala-Phe-Pro-Leu-Glu-Phe-OH (VYPNGAEDESAEAFPLEF-OH) [peptide 2]	–	37.6	38	did not inhibit	did not inhibit	28.6	114.7 % of control	53.9 % of control	140.5 % of control	65.5 % of control	118.8 % of control
